Several values for one entry are separate records, joined by “and”; a condition that tells them apart may be missing. Equal values may be shown once.
How the values were obtained:
[1] = Preferred Sucralose concentration in water, 0.4% NaCl and 2% NaCl, approximately 40 testers (Example 9); format: in vivo, human; settings: for Preferred Sucralose Concentration (wt %): correlation line of FIG. 1
From the text: To determine the preferred concentration of Sucralose to reduce the saltiness of bowel cleansers having different perceived saltiness, varying concentrations of Sucralose were tasted in water, a 0.4% NaCI water solution, and a 2% NaCI water solution. For each solution, approximately 40 testers were asked to rate four different concentrations of Sucralose. Tables 4, 5, and 6, below, present the average test data for the water, 0.4% NaCI water solution, and 2% NaCI water solution, respectively.
FIG. 1 plots the increasing salinity of the solutions from Tables 4, 5, and 6 against the preferred concentration of Sucralose required to reduce the saltiness and increase the palatability of each solution. The graph establishes that as saltiness increases, the amount of sweetener that should be added to improve palatability linearly increases (R^2=0.997). The X-axis NaCI and the Y-axis Sucralose concentrations represented by the correlation line from FIG. 1 are presented below in Table 7.

[2] = Stability of sweeteners in FLEET PHOSPHO-SODA (Example 1)
Protocol: While it is possible to add the sweetener and/or flavoring a short time before consumption of a phosphate salt bowel cleanser and retain at least a portion of the palatability benefits, one goal of the present bowel cleansing compositions is to provide stable liquids having increased palatability. Thus, numerous sweeteners and flavorings were tested for stability in phosphate salt bowel cleanser.
Sucrose, Saccharin, Sucralose, Aspartame, Ace-K, Thaumatin (Talin), Neohesperidine Dihydrochalcone (NHDC), and Trehalose were tested for stability in FLEET® PHOSPHO-SODA®.

[3] = Sweetener preference in diluted phosphate salt bowel cleanser, forty test subjects (Example 5); format: in vivo, human; settings: scale 1 to 4; 0.05% sweetener; 60 mL phosphate salt bowel cleanser in 355 mL water
Protocol: Each solution was prepared by diluting 60 mL of the phosphate salt bowel cleanser from Example 2 in 355 mL of water and using either 0.05% Ace-K, 0.05% Sucralose, 0.08% saccharin, 0.05% of a 5:1 Ace-K/Sucralose blend, or 15% sucrose as the sweetener.

[4] = Mean acceptability ratings (Likert) of sweetener systems in phosphate salt bowel cleanser, 19 test subjects (Example 6); format: in vivo, human; settings: at the same 0.38% concentration; systems with Ace-K
Protocol: A comparison between Saccharin/Ace-K and Sucralose/Ace-K was performed to determine which of these two sweetener systems most improved the palatability of a salty bowel cleanser. Table 3, below, provides the mean acceptability ratings for 19 test subjects who tasted 5:1 Saccharin/Ace-K and 5:1 Sucralose/Ace-K sweetener systems in 60 mL of the phosphate salt bowel cleanser from Example 2 in 355 mL of water.

[5] = Preference comparison of sweetened and unsweetened NaCl solutions and phosphate salt bowel cleansers (Example 8); format: in vivo, human
From the text: To establish the reliability of the NaCI to bowel cleanser comparison, test subjects were asked to taste sweetened and unsweetened NaCI solutions and sweetened and unsweetened phosphate salt bowel cleansers. In this comparison of the sweetened and unsweetened NaCI solutions, out of 19 test subjects, 17 preferred the 2% NaCI solution that included 0.13% Sucralose. Furthermore, in the preference comparison of the sweetened and unsweetened phosphate salt bowel cleanser, 18 out of 20 test subjects preferred the phosphate salt bowel cleanser including 0.13% Sucralose. Therefore, the palatability increase provided by the Sucralose was similarly observed for the 2% NaCI/water solution and the phosphate salt bowel cleanser.

[6] = Preferred Sucralose concentration in PEG based bowel cleanser NuLytely, thirty test subjects (Example 11); format: in vivo, human; settings: for rating of individual test subject / rating, Average: scale 1 to 5, 5 highly preferred, PEG based bowel cleanser
From the text: To determine the preferred concentration of Sucralose to reduce the saltiness of a PEG based bowel cleanser, test subjects were asked to taste unsweetened and three sweetened solutions of NuLytely®. NuLytely® is an aqueous liquid including approximately 420 g of 3350 PEG, 5.72 g of sodium bicarbonate, 11.2 g of NaCI, and 1.48 g of KCI. It has a similar perceived saltiness to the similar GoLytely®, which is an aqueous liquid including approximately 236 g of 3350 PEG, 22.74 g of sodium sulfate, 6.74 g of sodium bicarbonate, 5.86 g of NaCI, and 2.97 g of KCI. Either solution has a saltiness that approximates the 0.4% NaCl/water solution of Example 9.
Each of thirty test subjects was asked to rate the four solutions on a scale of 1 to 5 with 5 being highly preferred and 1 being least preferred. The first solution included no sweetener. The second, third, and fourth solutions included 0.01%, 0.025%, or 0.05% (w/w) of Sucralose, respectively.

[7] = Sweetener concentration preference in diluted phosphate salt bowel cleanser, about 35 testers (Example 10); format: in vivo, human; settings: for Average rating: scale 1 to 4, 4 highly preferred, 60 mL phosphate salt bowel cleanser in 355 mL water
Protocol: To confirm the correlation of FIG. 1 in a bowel cleanser with multiple sweeteners, approximately 35 testers were asked to select the most palatable solution from five possibilities. Each of the five solutions included 60 mL of the phosphate salt bowel cleanser from Example 2 in 355 mL of water. This solution has an equivalent saltiness to the 2% NaCI/water solution of Example 9. The first of the five solutions lacked any sweetener, while an increasing concentration of sweetener was added to the remaining four. Tests were performed using Sucralose, the 5:1 Ace-K/Sucralose blend, Ace-K, or Saccharin as the sweetener.
Tables 8, 9, 10, and 11, below, present the average test data for each sweetener, respectively.
The sweetener concentration for each data point corresponds to those in Tables 8 through 11, above, with higher values on the X-axis corresponding to higher sweetener concentrations.

[8] = considered to be; cited from earlier work
[9] = Taste tests to determine equivalent sweetness of sweeteners in a salty liquid (Example 4); format: in vivo, human
Protocol: Before a preferred sweetener for use in salty liquids could be determined, the amount of each sweetener required to provide an equivalent sweetness was determined. Multiple taste tests were performed comparing various concentrations of Sucralose, Ace-K, the 5:1 Ace-K/Sucralose blend, Saccharin, and sucrose in a salty liquid to determine an equivalent […].

Structure (SMILES): OC[C@H]1O[C@H](O[C@]2(CCl)O[C@H](CCl)[C@@H](O)[C@@H]2O)[C@H](O)[C@@H](O)[C@H]1Cl [Sucralose]
- Preferred Sucralose Concentration (wt %) ([1]; NaCl Concentration 0.0 wt %): 0.011 wt %
- Preferred Sucralose Concentration (wt %) ([1]; NaCl Concentration 0.2 wt %): 0.015 wt %
- Preferred Sucralose Concentration (wt %) ([1]; NaCl Concentration 0.4 wt %): 0.019 wt %
- Preferred Sucralose Concentration (wt %) ([1]; NaCl Concentration 0.6 wt %): 0.023 wt %
- Preferred Sucralose Concentration (wt %) ([1]; NaCl Concentration 0.8 wt %): 0.027 wt %
- Preferred Sucralose Concentration (wt %) ([1]; NaCl Concentration 1.0 wt %): 0.031 wt %
- Preferred Sucralose Concentration (wt %) ([1]; NaCl Concentration 1.2 wt %): 0.035 wt %
- Preferred Sucralose Concentration (wt %) ([1]; NaCl Concentration 1.4 wt %): 0.038 wt %
- Preferred Sucralose Concentration (wt %) ([1]; NaCl Concentration 1.6 wt %): 0.042 wt %
- Preferred Sucralose Concentration (wt %) ([1]; NaCl Concentration 1.8 wt %): 0.046 wt %
- Preferred Sucralose Concentration (wt %) ([1]; NaCl Concentration 2.0 wt %): 0.050 wt %
- Preferred Sucralose Concentration (wt %) ([1]; NaCl Concentration 2.2 wt %): 0.054 wt %
- Preferred Sucralose Concentration (wt %) ([1]; NaCl Concentration 2.4 wt %): 0.058 wt %
- Preferred Sucralose Concentration (wt %) ([1]; NaCl Concentration 2.6 wt %): 0.062 wt %
- Preferred Sucralose Concentration (wt %) ([1]; NaCl Concentration 2.8 wt %): 0.066 wt %
- Preferred Sucralose Concentration (wt %) ([1]; NaCl Concentration 3.0 wt %): 0.070 wt %
- preferred level of Sucralose ([1]; in the 0.4% NaCl solution): 0.02%
- preferred level of Sucralose ([1]; in the 2% NaCl solution): 0.05%
- preferred level of Sucralose ([1]; in water alone): 0.005%
- stability in FLEET PHOSPHO-SODA [2]: acceptable stability
- average preference value [3]: 3.2
- preference for Sucralose over Saccharin [4]: up to 55%
- number of test subjects preferring the sweetened solution ([5]; out of 19 test subjects, 2% NaCl solution with 0.13% Sucralose vs unsweetened): 17
- number of test subjects preferring the sweetened cleanser ([5]; out of 20 test subjects, phosphate salt bowel cleanser with 0.13% Sucralose vs unsweetened): 18
- preference of sweetened PEG based bowel cleanser compared with the unsweetened PEG cleanser ([6]; Sucralose-sweetened NuLytely): approximately 37%
- preferred Sucralose concentration ([6]; in the PEG based bowel cleanser): 0.025%
- rating of individual test subject ([6]; 0.01 % Sucralose): 4 (7×) and 2 (13×) and 3 (10×)
- rating, Average ([6]; 0.01 % Sucralose): 2.80
- rating of individual test subject ([6]; 0.025 % Sucralose): 4 (9×) and 2 (12×) and 3 (5×) and 1 (2×) and 5 (2×)
- rating, Average ([6]; 0.025 % Sucralose): 2.90
- rating of individual test subject ([6]; 0.05 % Sucralose): 2 (11×) and 1 (8×) and 5 (2×) and 4 (7×) and 3 (2×)
- rating, Average ([6]; 0.05 % Sucralose): 2.47
- preferred sweetener concentration to decrease saltiness ([7]; in the phosphate salt bowel cleanser): 0.05%
- Likert preferability comparison of sweeteners (FIG. 2) ([7]; phosphate salt bowel cleanser, scale 1 to 5, 5 most preferred, in words): most preferred
- Average rating ([7]; Sucralose 0.0125 % (w/w)): 2.56
- Average rating ([7]; Sucralose 0.025 % (w/w)): 2.72
- Average rating ([7]; Sucralose 0.05 % (w/w)): 3.22
- Average rating ([7]; Sucralose 0.1 % (w/w)): 2.88
- sweetness relative to sucrose / sugar [8]: about 600 times
- sweetener concentration providing an equivalent sweetness [9]: 0.05%
